Measurements: paper PMC12809495, “Potential 14-3-3 binding sites in sirtuins reveal extended phosphosite-recognition modes” (Acta Crystallographica Section F: Structural Biology …, 2026)
Where a SMILES comes first, the peptide text is derived from it. [ ]: non-standard residue; d: D form. pS = N[C@@H](COP(=O)(O)O)C(=O)O

Key:
[1] = biological target: T1, 14-3-3σ-ΔC (Homo sapiens, UniProt P31947); test: Isothermal titration calorimetry (ITC); format: binding; conditions: Fig. 3c; nanoITC, 150 µM 14-3-3σ-ΔC in cell, fourfold-concentrated peptide, 2 µl injections, 25°C, one-site fit; duplicate, error between fits; read-out: apparent Kd, ITC
T1 construct: His6; made in house; host or cells: Escherichia coli BL21 Rosetta (DE3)
T1 sequence (P31947 1-231 limits assumed): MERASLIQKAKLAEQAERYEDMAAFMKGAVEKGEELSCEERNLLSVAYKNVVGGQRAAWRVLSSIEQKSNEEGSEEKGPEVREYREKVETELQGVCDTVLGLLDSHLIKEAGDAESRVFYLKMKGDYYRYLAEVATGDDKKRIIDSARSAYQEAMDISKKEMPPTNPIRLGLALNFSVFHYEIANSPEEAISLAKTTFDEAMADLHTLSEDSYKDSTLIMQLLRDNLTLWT
Method: Peptide ligands were freshly prepared in the exact same buffer as was used for the gel-filtration run. Samples were degassed and temperature-equilibrated using a degassing station (TA Instruments). A volume of 250 µl of 14-3-3σ-ΔC protein sample at a concentration of 150 µM was transferred into the sample cell of a nanoITC (TA Instruments) and 50 µl of a fourfold-concentrated phosphorylated peptide was loaded into the injection needle. Multiple injection measurements were carried out at 25°C with a 300 rev min^−1 stirring rate and 300 s spacing between each 2 µl injection. The heat quantity post-injection was determined by integration of the measured peaks. The Sirt1^pS670 peptide behaved best and was measured in duplicate. Subtraction of heat of dilution measurements, peak integration and one-site binding fits were performed with NanoAnalyze (TA Instruments). The reported errors are the errors between fits of the measured duplicates.
Figure 3 Affinity measurements of Sirt1^pS670 and different Sirt3 peptides for 14-3-3σ-ΔC protein using MST and ITC experiments. […] (b) MST experiments of titrations of 14-3-3σ-ΔC with Sirt3^pS105 (squares) or Sirt3^pS103 (two independent runs, filled triangles and triangles) endecamer peptides and, for comparison, with nonphosphoylated Sirt3^S103 peptide (circles).

[2] = biological target: T2, 14-3-3 isoform gamma (Homo sapiens, UniProt P61981); test: Label-free microscale thermophoresis (MST) binding, 14-3-3 gamma; conditions: 0.6 µM 14-3-3 protein, 25 mM MES pH 6.5, 5 mM MgCl2, 5 mM CaCl2, 25°C, Kd from duplicate measurements, aggr. = no successful experiment
T2 construct: His6; made in house; host or cells: Escherichia coli BL21 Rosetta (DE3)
T2 sequence (P61981 1-247): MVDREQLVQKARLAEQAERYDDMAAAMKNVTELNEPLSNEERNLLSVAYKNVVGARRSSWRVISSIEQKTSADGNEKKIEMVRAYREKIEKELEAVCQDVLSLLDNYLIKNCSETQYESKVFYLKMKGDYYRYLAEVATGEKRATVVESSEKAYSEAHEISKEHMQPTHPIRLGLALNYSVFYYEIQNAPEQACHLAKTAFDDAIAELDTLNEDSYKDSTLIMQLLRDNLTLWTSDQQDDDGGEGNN
Method: The binding of phosphorylated sirtuin peptides (Fig. 1 ▸) was analyzed using the change in the intrinsic fluorescence signal of the 14-3-3 proteins measured with label-free microscale thermophoresis using a Nanotemper Monolith NT.LabelFree or NT.115. A typical binding experiment using 0.6 µM 14-3-3 protein was performed in a modified MST buffer consisting of 25 mM MES pH 6.5, 5 mM MgCl2, 5 mM CaCl2. The measurements were performed at 25°C using a LED power of 10–40%. All measurements were performed at least in duplicate, and the results shown are representative measurements individually fitted using GraFit 7 (Erathicus Software, Horley, United Kingdom).
Figure 1 Classification and analysis of sirtuin PSSM results for potential 14-3-3 phosphoserine binding sites. Peptides with a gray background were not analyzed experimentally. Score is the overall PSSM score for the phosphorylation site; rank is the order within the 17 proposed sirtuin binding sites. Conserved residues in the 14-3-3 motifs are marked in green. Residues with restricted (proline) or very flexible (glycine) protein backbone or with a very large side chain (tryptophan) are marked in red. Amino acids with the same or similar hydrophobicity/size are shown in magenta. Kd values from duplicate measurements are colored green for Kd < 100 µM. Fields marked in red indicate no binding or no successful experiment. […]

Structure (SMILES): CC(C)C[C@H](NC(=O)[C@@H](N)C(C)C)C(=O)N[C@@H](CO)C(=O)N[C@@H](CO)C(=O)N[C@@H](CO)C(=O)N[C@@H](COP(=O)(O)O)C(=O)N[C@@H](CS)C(=O)NCC(=O)N[C@@H](CO)C(=O)N[C@@H](CC(N)=O)C(=O)N[C@@H](CO)C(=O)O [Sirt1^pS670] (H-VLSSS[pS]CGSNS-OH)
- Kd [1]: 5 ± 4.2 µM
- Affinity estimates by MicroScale Thermophoresis, 14-3-3 isoform gamma (Kd) [2]: aggr.
